The values that follow come from ChEMBL document CHEMBL3286266, “Development of novel benzomorpholine class of diacylglycerol acyltransferase I inhibitors” (ACS Med Chem Lett, 2014).

Converted amounts (≈) assume the structure as drawn. The source made the active and inactive calls. No cut-off for these calls is given here.

Data set [1] relates to Mus musculus. The experiment in a line: Reduction in triglycerides level in mouse at 1 mg/kg, po after 2 hrs by postprandial triglyceride assay. The data set is classed as functional.
For another data set, the target named is Cytochrome P450 2C9 (Homo sapiens, UniProt P11712). The experiment in a line: Inhibition of CYP2C9 (unknown origin).
Chain of Cytochrome P450 2C9 (P11712 whole entry): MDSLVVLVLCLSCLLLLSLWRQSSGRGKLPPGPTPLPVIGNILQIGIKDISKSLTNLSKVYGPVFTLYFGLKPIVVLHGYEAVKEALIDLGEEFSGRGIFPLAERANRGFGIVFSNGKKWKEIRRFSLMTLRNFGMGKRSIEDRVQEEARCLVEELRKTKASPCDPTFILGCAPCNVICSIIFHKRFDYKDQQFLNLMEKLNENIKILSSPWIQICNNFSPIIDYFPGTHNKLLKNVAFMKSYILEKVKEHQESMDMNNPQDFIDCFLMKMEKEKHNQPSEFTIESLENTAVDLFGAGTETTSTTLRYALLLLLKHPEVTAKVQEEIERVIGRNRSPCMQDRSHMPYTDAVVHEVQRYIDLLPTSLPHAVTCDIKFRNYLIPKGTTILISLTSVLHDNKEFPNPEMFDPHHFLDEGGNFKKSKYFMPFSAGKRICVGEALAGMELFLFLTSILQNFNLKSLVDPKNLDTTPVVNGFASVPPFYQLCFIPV
In data set [2] the target is T1, Diacylglycerol O-acyltransferase 1 (Mus musculus, UniProt Q9Z2A7).
T1 sequence (Q9Z2A7 whole entry): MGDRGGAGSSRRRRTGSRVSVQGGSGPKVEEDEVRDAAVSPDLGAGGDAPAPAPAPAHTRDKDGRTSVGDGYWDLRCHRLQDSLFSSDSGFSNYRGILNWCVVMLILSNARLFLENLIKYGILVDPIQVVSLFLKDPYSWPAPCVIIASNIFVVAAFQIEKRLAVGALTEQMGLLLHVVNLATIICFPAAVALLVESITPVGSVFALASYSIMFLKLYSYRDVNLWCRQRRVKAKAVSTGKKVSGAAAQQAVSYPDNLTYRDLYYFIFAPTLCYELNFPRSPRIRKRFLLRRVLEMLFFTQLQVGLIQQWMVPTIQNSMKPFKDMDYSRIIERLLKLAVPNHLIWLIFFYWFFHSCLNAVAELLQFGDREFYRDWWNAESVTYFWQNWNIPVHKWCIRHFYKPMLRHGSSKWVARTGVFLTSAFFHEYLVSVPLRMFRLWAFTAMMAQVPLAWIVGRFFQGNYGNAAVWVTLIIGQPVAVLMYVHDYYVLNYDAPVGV
Description: Inhibition of mouse DGAT1 expressed in Sf9 insect cells using 1,2-dioleoyl-sn-glycerol and [14C]-palmitoyl-CoA substrate by scintillation counting analysis.

Data set [3] in a line: Total AUC in rat at 10 mg/kg. To be noted: in vivo. More on the design: time AUCmax, dose 10 mg/kg. The data set is classed as ADME, organism-based.
The test system of data set [4] is Mus musculus. Description: Reduction in triglycerides level in mouse at 0.3 mg/kg, po after 2 hrs by postprandial triglyceride assay. Format: functional.
For data set [5], the target named is T2, Sterol O-acyltransferase 2 (Homo sapiens, UniProt O75908).
T2 sequence (O75908 whole entry): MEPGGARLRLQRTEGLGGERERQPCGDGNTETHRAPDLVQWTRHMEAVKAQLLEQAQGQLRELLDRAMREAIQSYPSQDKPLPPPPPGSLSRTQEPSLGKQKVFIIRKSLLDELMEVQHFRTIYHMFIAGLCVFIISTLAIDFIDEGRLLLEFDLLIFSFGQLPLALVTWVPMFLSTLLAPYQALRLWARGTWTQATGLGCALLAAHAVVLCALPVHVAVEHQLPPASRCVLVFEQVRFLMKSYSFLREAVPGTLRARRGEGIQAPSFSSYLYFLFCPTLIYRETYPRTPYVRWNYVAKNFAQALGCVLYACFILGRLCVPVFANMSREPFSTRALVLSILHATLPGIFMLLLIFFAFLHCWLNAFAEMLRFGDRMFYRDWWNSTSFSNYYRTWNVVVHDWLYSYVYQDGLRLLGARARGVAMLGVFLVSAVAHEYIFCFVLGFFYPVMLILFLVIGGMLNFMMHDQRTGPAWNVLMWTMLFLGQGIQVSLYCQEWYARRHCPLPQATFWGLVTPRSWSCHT
Description: Inhibition of human ACAT2 expressed in Sf9 insect cells using [14C]-oleoyl-CoA by scintillation counting analysis.

For data set [6], the target named is T3, Diacylglycerol O-acyltransferase 2 (Homo sapiens, UniProt Q96PD7).
T3 sequence (Q96PD7 whole entry): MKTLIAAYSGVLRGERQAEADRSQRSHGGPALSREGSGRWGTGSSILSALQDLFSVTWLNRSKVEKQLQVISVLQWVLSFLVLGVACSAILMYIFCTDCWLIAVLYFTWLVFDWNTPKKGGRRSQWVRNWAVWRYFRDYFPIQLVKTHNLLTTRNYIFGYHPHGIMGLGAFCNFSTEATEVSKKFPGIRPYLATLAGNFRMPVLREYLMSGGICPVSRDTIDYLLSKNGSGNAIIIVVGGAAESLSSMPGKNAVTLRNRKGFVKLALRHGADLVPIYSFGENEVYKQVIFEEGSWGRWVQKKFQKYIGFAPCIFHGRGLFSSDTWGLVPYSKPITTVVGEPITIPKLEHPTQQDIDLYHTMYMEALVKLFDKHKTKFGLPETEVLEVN
The experiment in a line: (§1) Inhibition of human DGAT2 expressed in Sf9 insect cells using 1,2-dioleoyl-sn-glycerol and [14C]-palmitoyl-CoA substrate by scintillation counting analysis.

In data set [7] the target is T4, Sterol O-acyltransferase 1 (Homo sapiens, UniProt P35610).
T4 sequence (P35610 whole entry): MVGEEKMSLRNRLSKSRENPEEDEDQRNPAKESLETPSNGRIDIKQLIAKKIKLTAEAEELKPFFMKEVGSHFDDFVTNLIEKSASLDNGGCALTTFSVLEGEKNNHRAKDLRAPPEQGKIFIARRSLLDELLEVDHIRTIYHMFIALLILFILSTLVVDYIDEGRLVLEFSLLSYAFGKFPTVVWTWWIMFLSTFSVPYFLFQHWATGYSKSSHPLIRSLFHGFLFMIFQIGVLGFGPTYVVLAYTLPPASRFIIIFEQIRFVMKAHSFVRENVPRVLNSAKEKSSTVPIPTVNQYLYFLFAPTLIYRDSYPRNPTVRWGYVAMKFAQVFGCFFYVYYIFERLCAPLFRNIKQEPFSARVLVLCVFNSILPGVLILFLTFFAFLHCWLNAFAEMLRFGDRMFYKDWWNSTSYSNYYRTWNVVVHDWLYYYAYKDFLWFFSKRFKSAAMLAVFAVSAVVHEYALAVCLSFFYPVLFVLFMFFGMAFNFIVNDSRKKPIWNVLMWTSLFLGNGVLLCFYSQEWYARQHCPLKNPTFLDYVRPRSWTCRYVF
Description: Inhibition of human ACAT1 expressed in Sf9 insect cells using [14C]-oleoyl-CoA by scintillation counting analysis.

Data set [8] is described as follows: AUC in mouse at 10 mg/kg. As to conditions: plasma. Set-up: dose 10 mg/kg. The data set is classed as ADME, organism-based.
The nature of data set [9]: Metabolic stability in human plasma assessed as compound loss measured at 12 hrs at 25 degC. Format: ADME, cell-free. To be noted: read-out: Drug metabolism.
The subject of data set [10] is Mus musculus. The experiment in a line: Reduction in triglycerides level in mouse at 10 mg/kg, po after 2 hrs by postprandial triglyceride assay. Format: functional.
Data set [11] concerns Mus musculus. Description: Reduction in triglycerides level in mouse at 3 mg/kg, po after 2 hrs by postprandial triglyceride assay. Format: functional.
Data set [12] can be described thus: AUC in rat at 10 mg/kg. More on the design: dose 10 mg/kg. To be noted: plasma. The data set is classed as ADME, organism-based.
A short description of data set [13]: Solubility of the compound. Format: physicochemical.
Data set [14] can be described thus: Permeability in human Caco2 cells. Format: ADME, cell-based. To be noted: Caco-2, read-out: permeability. Background: Caco-2 monolayers are a common model of the intestinal barrier.
For data set [15], the target named is T5, Diacylglycerol O-acyltransferase 2 (Homo sapiens) (UniProt Q96PD7).
T5 sequence (whole entry): T3 sequence (Q96PD7 whole entry)
Described as §1.

A short description of data set [16]: Cmax in rat. Format: ADME, organism-based. As to conditions: in vivo.
Data set [17] can be described thus: Total AUC in rat. The data set is classed as ADME, organism-based. More on the design: time AUCmax. To be noted: in vivo.
Data set [18] is described as follows: Solubility in plasma (unknown origin) at pH 7. The data set is classed as ADME, cell-free.
Data set [19] in a line: Tmax in rat. The data set is classed as ADME, organism-based. As to conditions: in vivo.

What is called inhibition in vivo is the relative decrease from the control value, in per cent. Read a low inhibition in vivo as little suppression. A word on the IC50: it is the concentration needed to halve the response being measured. By AUC is commonly meant the area under the concentration-time curve, a measure of exposure. The solubility is the dissolved amount per volume that the medium holds. The low end stands for little dissolved substance, the high end for much dissolved substance. One may read the Cmax as the peak of the concentration-time curve. A word on the Tmax: it is the time from dosing to the highest level.

In the data set on Mus musculus [1], `CCC1CN(C(=O)Nc2ccccc2)c2ccc(-c3ccc(OCC(C)(C)C(=O)O)nc3)cc2O1` (stereo not drawn) registered an inhibition in vivo at 1 mg/kg of 100%. Also, the IC50 stood at 500 nM against Cytochrome P450 2C9 and 73 nM in data set [2]. In data set [3], this compound showed an AUC of 46 µM·h. The compound further showed an inhibition in vivo at 0.3 mg/kg in the data set on Mus musculus [4] of 73%.
In the case of `C[C@@H]1CN(C(=O)Nc2ccccc2)c2ccc(-c3ccc([C@H]4CC[C@H](CC(=O)O)CC4)cc3)cc2O1`, the IC50 in data set [5] was determined as 2000 nM; against Cytochrome P450 2C9, 14000 nM; in data set [6], 10000 nM; in data set [7] it was 10000 nM; in data set [2], 18 nM. Further, the AUC in data set [8] was found to be 34 µM·h.
Turning to `O=C(O)C[C@H]1CC[C@H](c2ccc(-c3ccc4c(c3)OCCN4C(=O)Nc3ccccc3)cc2)CC1`, the metabolised at 12 h in data set [9] was found to be 10%. Also, the inhibition in vivo at 10 mg/kg in the data set with Mus musculus [10] is 52%.
For the compound `O=C(O)C[C@H]1CC[C@H](c2ccc(-c3ccc4c(c3)OCCN4C(=O)Nc3ccc(F)cc3C(F)(F)F)cc2)CC1`, the IC50 in [5] was 9600 nM; in [2], 35 nM. The inhibition in vivo at 3 mg/kg in the data set with Mus musculus [11] is 59%. For the same compound, in data set [12], the AUC turned out to be 23 µM·h. Also, in data set [13], the solubility turned out to be 100 µM (≈ 55.7 µg/mL). Moreover, the Papp in [14] came out at 23.9 ×10⁻⁶ cm/s. For the same compound, the inhibition entry in data set [15] is “inactive”. For the same compound, the inhibition in vivo at 10 mg/kg in the data set with Mus musculus [10] is 91%.
As for `CCCCCCCNC(=O)N1CCOc2cc(-c3ccc([C@H]4CC[C@H](CC(=O)O)CC4)cc3)ccc21`, the Cmax in data set [16] came out at 65 nM. For the same compound, the inhibition in vivo at 3 mg/kg in the data set on Mus musculus [11] came to 48%. Besides, the area under the curve (AUC) in data set [17] came out at 0.195 µM·h. In addition, the Papp in data set [14] worked out at 3.5 ×10⁻⁶ cm/s. Besides, the concentration in solution in [18] (solubility) was 5 µM (≈ 2.46 µg/mL). Further, the midpoint of inhibition in data set [2], the IC50, lay at 27 nM. Besides, in data set [19], the Tmax worked out at 2 h.
